Experimental data reported in patent US20230357253A1, “AGONISTS OF STIMULATOR OF INTERFERON GENES STING” (THE SCRIPPS RESEARCH INSTITUTE, priority 2020, published 2023).
pEC50: −log10 of the molar value.

The compounds below were run on THP-1 Lucia ISG cells (assay: ISRE-luciferase assay (ISG-LUC activation)). Settings: Homo sapiens, THP1-Lucia ISG, 24 hours, luciferase reporter.
Type: cell-based
Procedure: ISRE-luciferase assay. THP-1 Lucia ISG cells were resuspended in low-serum growth media (2% FBS) at a density of 5×10^5 cells/ml and treated with test article or vehicle (DMSO). 50 μL of cells were seeded into each well of a 384-well white greiner plates and incubated for 24 hours. To evaluate expression of the luciferase reporter, 30 μl of Quanti-luc (Invivogen) detection reagent was added to each well and luminescence was read using an Envision plate reader (Perkin Elmer) set with an integration time of 0.1 seconds. For each cell type, luminescence signals for test article samples were normalized to vehicle-treated samples and reported as relative light units (RLU).

| pEC50 | SMILES |
| --- | --- |
| < 5.30 | O=C(Nc1cc(OCCCCOc2ccc(C(=O)O)c(NC(=O)c3ccc(-n4ccnc4)nn3)c2)ccc1C(=O)O)c1cccnn1 [Compound 44] |
| > 7.30 | O=C(Nc1cc(CCSc2cc(NC(=O)c3ccc(-n4ccnc4)nn3)c(C(=O)O)cc2F)c(F)cc1C(=O)O)c1ccc(-n2ccnc2)nn1 [Compound 195] |
| < 5.30 | O=C(Nc1cc(OCCCCOc2cnc(C(=O)O)c(NC(=O)c3ccc(-n4ccnc4)nn3)c2)cnc1C(=O)O)c1ccc(-n2ccnc2)nn1 [Compound 45] |
| < 5.30 | O=C(Nc1cc(OCCCOc2cc(C(=O)O)c(NC(=O)c3ccc4nnnn4n3)cc2F)c(F)cc1C(=O)O)c1ccc2nnnn2n1 [Compound 33] |
| 6.30 to 7.30 | C=C(Cc1cc(NC(=O)c2ccc(-n3ccnc3)nn2)c(C(=O)O)cc1F)Cc1cc(NC(=O)c2ccc(-n3ccnc3)nn2)c(C(=O)O)cc1F [Compound 199] |
| < 5.30 | O=C(Nc1c(C(=O)O)cc(F)c(OCCCCOc2c(F)cc(C(=O)O)c(NC(=O)c3ccc(-n4ccnc4)nn3)c2F)c1F)c1ccc(O)nn1 [Compound 39] |
| 6.30 to 7.30 | O=C(Nc1cc(OCCOc2cc(C(=O)O)c(NC(=O)c3ccc(-n4ccnc4)nn3)cc2F)c(F)cc1C(=O)O)c1ccc(-n2ccnc2)nn1 [Compound 191] |
| 6.30 to 7.30 | O=C(Nc1cc(CCOc2cc(C(=O)O)c(NC(=O)c3ccc(-n4ccnc4)nn3)cc2F)c(F)cc1C(=O)O)c1ccc(-n2ccnc2)nn1 [Compound 141] |
| < 5.30 | O=C(Nc1cc(CCc2cc(C(=O)O)c(NC(=O)c3ccc(-n4ccnc4)nn3)cc2F)c(F)cc1C(=O)O)c1ccc(-n2ccnc2)nn1 [Compound 180] |
| > 7.30 | COC(=O)c1cc(Cl)c(CCCc2ccc(C(=O)OC)c(NC(=O)c3ccc4nnnn4n3)c2)cc1NC(=O)c1ccc(-n2ccnc2)nn1 [Compound 106] |
| 5.30 to 6.30 | O=c1oc(-c2ccc(-n3ccnc3)nn2)nc2c(F)c(OCCCCOc3c(F)cc4c(=O)oc(-c5ccc(-n6ccnc6)nn5)nc4c3F)c(F)cc12 [Compound 9, 7,7′-(butane-1,4-diylbis(oxy))bis(2-(6-(1H-imidazol-1-yl)pyridazin-3-yl)-6,8-difluoro-4H-benzo[d][1,3]oxazin-4-one)] |
| < 5.30 | COC(=O)c1ccc(CCCc2ccc(NC(=O)c3ccc(-n4ccnc4)nn3)c(C(=O)OC)c2)cc1NC(=O)c1ccc(-n2ccnc2)nn1 [Compound 53] |
| 6.30 to 7.30 | O=C(Nc1cc(OCCc2cc(C(=O)O)c(NC(=O)c3ccc(-c4cn[nH]c4)nn3)cc2F)c(F)cc1C(=O)O)c1ccc(-c2cn[nH]c2)nn1 [Compound 204] |
| > 7.30 | C#Cc1cc(NC(=O)c2ccc(-n3ccnc3)nn2)c(C(=O)O)cc1OCCc1cc(NC(=O)c2ccc(-n3ccnc3)nn2)c(C(=O)O)cc1F [Compound 209] |
| 5.30 to 6.30 | COC(=O)c1cc(F)c(OCCc2cc(NC(=O)c3ccc(-n4ccnc4)nn3)c(C(=O)OC)cc2C#N)cc1NC(=O)c1ccc(-n2ccnc2)nn1 [Compound 157] |
| 6.30 to 7.30 | N#Cc1cc(C(=O)O)c(NC(=O)c2ccc(-n3ccnc3)nn2)cc1CCCc1cc(NC(=O)c2ccc(-n3ccnc3)nn2)c(C(=O)O)cc1F [Compound 182] |
| 6.30 to 7.30 | COc1cc(C(=O)O)c(NC(=O)c2ccc(-n3ccnc3)nn2)cc1CCCc1ccc(C(=O)O)c(NC(=O)c2ccc(-n3ccnc3)nn2)c1 [Compound 56] |
| 5.30 to 6.30 | O=C(Nc1cc(CCCOc2cc(NC(=O)c3ccc4nnnn4n3)c(C(=O)O)cc2F)c(F)cc1C(=O)O)c1ccc(-n2ccnc2)nn1 [Compound 126] |
| > 7.30 | COC(=O)c1cc(F)c(CCOc2cc(NC(=O)c3ccc4nnnn4n3)c(C(=O)OC)cc2F)cc1NC(=O)c1ccc(-n2ccnc2)nn1 [Compound 113] |
| 6.30 to 7.30 | O=C(Nc1cc(CCCc2cc(C(=O)O)c(NC(=O)c3ccc(-n4ccnc4)nn3)cc2F)ccc1C(=O)O)c1ccc(-n2ccnc2)nn1 [Compound 78] |
| < 5.30 | O=C(Nc1cc(OCCOc2cc(C(=O)O)c(NC(=O)c3ccc4nnnn4n3)cc2F)ccc1C(=O)O)c1ccc2nnnn2n1 [Compound 26] |
| 6.30 to 7.30 | O=C(Nc1cc(CCCc2cc(NC(=O)c3ccc(-n4ccnc4)nn3)c(C(=O)O)cc2F)c(F)cc1C(=O)O)c1ccc(-c2cn[nH]c2)nn1 [Compound 159] |
